Data from patent publication US20180119171A1, “REPLICATIVE VACCINIA VIRUS VECTOR HIV VACCINE” (priority 2014, published 2018).

Legend:
VTT [1] = assay type: cell-based, vaccinia virus Tiantan strain
TT-TK [2] = assay type: cell-based, recombinant vaccinia virus Tiantan strain
TT-EnvTK = assay type: cell-based, recombinant vaccinia virus Tiantan strain
VTT [3] = tested on: VTT; set-up: species or system C57BL mice; settings: mouse, in vivo
TT-TK [4] = tested on: TT-TK; set-up: species or system C57BL mice; settings: mouse, in vivo
vaccinia virus = settings: reference [10]; cited from earlier work

Nc1nc(O)c2ncn(COC(CO)CO)c2n1 [GCV, ganciclovir]
inhibition effect on virus plaque number, VTT (VTT [1]): no inhibition effects | inhibition effect on virus plaque number, TT-TK (TT-TK [2]): clear inhibition effects | inhibition effect on virus plaque number, TT-EnvTK (TT-EnvTK): clear inhibition effects | virus titre in mice ovaries, VTT inoculation, GCV injected (VTT [3]): 1×10^6 PFU | virus titre in mice ovaries, TT-TK inoculation, GCV injected (TT-TK [4]): No virus was detected | EC50 (vaccinia virus): > 300 µM
